pIC50: −log10 of the molar value.

One assay concerns the target T1, human NaPi-IIb (Homo sapiens, UniProt O95436).
T1 construct: expressed in transfected cells
T1 sequence (O95436 1-690): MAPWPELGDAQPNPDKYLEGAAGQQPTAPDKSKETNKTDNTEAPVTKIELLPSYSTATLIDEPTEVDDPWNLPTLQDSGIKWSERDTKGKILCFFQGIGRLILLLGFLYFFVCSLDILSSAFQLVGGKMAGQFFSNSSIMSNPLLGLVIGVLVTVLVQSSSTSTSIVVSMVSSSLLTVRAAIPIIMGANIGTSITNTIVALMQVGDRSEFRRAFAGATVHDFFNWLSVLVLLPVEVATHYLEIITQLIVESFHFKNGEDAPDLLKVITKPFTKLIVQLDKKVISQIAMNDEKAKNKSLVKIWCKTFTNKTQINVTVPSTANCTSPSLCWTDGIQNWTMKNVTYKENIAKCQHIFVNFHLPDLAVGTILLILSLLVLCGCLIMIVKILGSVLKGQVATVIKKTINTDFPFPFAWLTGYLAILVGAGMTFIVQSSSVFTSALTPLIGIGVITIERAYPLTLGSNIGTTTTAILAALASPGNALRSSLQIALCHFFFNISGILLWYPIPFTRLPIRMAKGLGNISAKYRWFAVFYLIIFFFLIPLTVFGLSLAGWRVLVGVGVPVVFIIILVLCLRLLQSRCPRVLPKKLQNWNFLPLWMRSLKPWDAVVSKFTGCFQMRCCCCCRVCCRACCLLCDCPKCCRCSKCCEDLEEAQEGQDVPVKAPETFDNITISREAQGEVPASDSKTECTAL
Briefly: Inhibitory effect on 33PO4 uptake into human NaPi-IIb-expressing CHO cells. The class given is cell-based. As to conditions: read-out: IC50. The procedure, abridged:
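Stable human NaPi-IIb CHO line (G418-selected), plated and cultured overnight; ³³PO4 added in buffer A and uptake run at room temperature. Cells washed with ice-cold buffer A, then uptake counted by liquid scintillation.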
By pIC50 is commonly meant the IC50 on a negative log10 scale, so that one unit is a factor of ten. For the molecule `Cc1c(C#N)ncnc1-c1cc(C(F)(F)F)ccc1NC(=O)C1=C(O)[C@@]2(C)CCCN2N(Cc2cccc(F)c2F)C1=O` [Example 24], the pIC50 was 5.09.
Still for that read-out and setting: under `C[C@]12CCCN1N(Cc1ccccc1F)C(=O)C(C(=O)Nc1ccc(C(F)(F)F)cc1-c1ccc(C(F)(F)F)nc1)=C2O` [Example 200] stands 5.89.
The same measure, in the same setting: with `C[C@]12CCCN1N(CCCC(F)(F)F)C(=O)C(C(=O)Nc1ccc(C(F)(F)F)cc1-c1cc(C(F)(F)F)ncn1)=C2O` [Example 234] the figure was 5.03; with `CN(CCOc1ccc(CN2C(=O)C(C(=O)Nc3ccc(C(F)(F)F)cc3-c3cc(C(F)(F)F)ncn3)=C(O)C3(CCC3)N2C)c(F)c1F)C1CCOC1` (stereo not shown) [Example 338, 6-[[2,3-Difluoro-4-[2-[methyl(oxolan-3-yl)amino]ethoxy]phenyl]methyl]-9-hydroxy-5-methyl-7-oxo-N-[4-(trifluoromethyl)-2-[6-(trifluoromethyl)pyrimidin-4-yl]phenyl]-5,6-diazaspiro[3.5]non-8-ene-8-carboxamide], 4.87.
The same measure, in the same setting: with `C[C@]12CCCN1N(Cc1cccc(F)c1F)C(=O)C(C(=O)Nc1ccc(C(F)(F)F)cc1-c1cnc(C#N)c([N+](=O)[O-])c1)=C2O` [Example 99, (4aR)—N-[2-(6-Cyano-5-nitropyridin-3-yl)-4-(trifluoromethyl)phenyl]-1-[(2,3-difluorophenyl)methyl]-4-hydroxy-4a-methyl-2-oxo-6,7-dihydro-5H-pyrrolo[1,2-b]pyridazine-3-carboxamide] the figure was 5.37.
With `CN1[C@@H](C(C)(C)C)C(O)=C(C(=O)Nc2ccc(Cl)cc2-c2cc(C#N)ncn2)C(=O)N1Cc1ccc(OCCN2CCOCC2)c(F)c1F` [Example 272], the pIC50 is 4.71.
The same measure, in the same setting: under `COC(=O)CN(C)CCOc1ccc(CN2C(=O)C(C(=O)Nc3ccc(C(F)(F)F)cc3-c3cc(C(F)(F)F)ncn3)=C(O)C3(CCC3)N2C)c(F)c1F` [Example 346] stands 5.16.
On the same count and under the same terms, with `C[C@]12CCCN1N(Cc1cccc([N+](=O)[O-])c1)C(=O)C(C(=O)Nc1ccc(Br)c(F)c1)=C2O` [Example 27] the figure was 5.05.
Consider `CN1N(Cc2cccc(F)c2F)C(=O)C(C(=O)Nc2ccc(Cl)cc2-c2ccc(C(F)(F)F)nc2)=C(O)C12CCC2` [Example 256], for which the pIC50 is 5.36.
`C[C@]12CCCN1N(Cc1cccc(F)c1F)C(=O)C(C(=O)Nc1ccc(C(F)(F)F)cc1-c1cnc(N3CC4(COC4)C3)c(C#N)c1)=C2O` [Example 111, (4aR)—N-[2-[5-Cyano-6-(2-oxa-6-azaspiro[3.3]heptan-6-yl)pyridin-3-yl]-4-(trifluoromethyl)phenyl]-1-[(2,3-difluorophenyl)methyl]-4-hydroxy-4a-methyl-2-oxo-6,7-dihydro-5H-pyrrolo[1,2-b]pyridazine-3-carboxamide]: the pIC50 is 4.70.
Still for that read-out and setting: under `Cc1nc(NC(=O)C2=C(O)[C@H](C(C)(C)C)N(C)N(Cc3cccc(F)c3F)C2=O)ccc1Br` [Example 241] stands 4.78.
The same measure, in the same setting: with `C[C@]12CCCN1N(Cc1ccc(F)c(F)c1)C(=O)C(C(=O)Nc1ccc(C(F)(F)F)cc1-c1cc(C(F)(F)F)ncn1)=C2O` [Example 214] the figure was 5.15; with `CCC1(CC)C(O)=C(C(=O)Nc2ccc(Cl)cc2-c2cc(C(F)(F)F)ncn2)C(=O)N(Cc2ccc(OCCN3CCOCC3)c(F)c2F)N1C` [Example 292], 4.74.
The same measure, in the same setting: with `C[C@]12CCCN1N(Cc1cccc(F)c1F)C(=O)C(C(=O)Nc1ccc(Br)c(F)c1)=C2O` [Example 28] the figure was 5.39; with `C[C@]12CCCN1N(Cc1ccc(F)cc1)C(=O)C(C(=O)Nc1ccc(C(F)(F)F)cc1-c1ccc(C(F)(F)F)nc1)=C2O` [Example 199], 5.74.
`C[C@]12CCCN1N(Cc1ccccc1Cl)C(=O)C(C(=O)Nc1ccc(C(F)(F)F)cc1-c1ccc(C(F)(F)F)nc1)=C2O` [Example 168]: the pIC50 was 5.59.
Same read-out and setting: with `CN1N(Cc2ccc(OCCCC(=O)O)c(F)c2F)C(=O)C(C(=O)Nc2ccc(C(F)(F)F)cc2-c2cc(C(F)(F)F)ncn2)=C(O)C12CCCC2` [Example 332, 4-[2,3-Difluoro-4-[[10-hydroxy-6-methyl-8-oxo-9-[[4-(trifluoromethyl)-2-[6-(trifluoromethyl)pyrimidin-4-yl]phenyl]carbamoyl]-6,7-diazaspiro[4.5]dec-9-en-7-yl]methyl]phenoxy]butanoate] the figure was 4.62; with `CN1N(Cc2ccc(OCC(=O)N3CCOCC3)c(F)c2F)C(=O)C(C(=O)Nc2ccc(C(F)(F)F)cc2-c2cc(C(F)(F)F)ncn2)=C(O)C12CCC2` [Example 336, 8-[[2,3-Difluoro-4-(2-morpholin-2-oxo-ethoxy)phenyl]methyl]-5-hydroxy-9-methyl-7-oxo-N-[4-(trifluoromethyl)-2-[6-(trifluoromethyl)pyrimidin-4-yl]phenyl]-8,9-diazaspiro[3.5]non-5-ene-6-carboxamide], 4.71.
The same measure, in the same setting: under `COC(=O)c1cccc(-c2cc(C(F)(F)F)ccc2NC(=O)C2=C(O)[C@@]3(C)CCCN3N(Cc3cccc(F)c3F)C2=O)c1OC` [Example 65] stands 4.79; under `C[C@]12CCCN1N(Cc1cccc(F)c1F)C(=O)C(C(=O)Nc1ccc(Br)cc1-c1cc(C(F)(F)F)ncn1)=C2O` [Example 64], 5.19.
The same measure, in the same setting: with `CN1N(Cc2ccc(OCCN3CCOCC3)c(F)c2F)C(=O)C(C(=O)Nc2ccc(Cl)cc2-c2cc(C(F)(F)F)ncn2)=C(O)C12CCCC2` [Example 286] the figure was 4.80; with `CCC1(CC)C(O)=C(C(=O)Nc2ccc(Cl)cc2-c2ccc(C(F)(F)F)nc2)C(=O)N(Cc2ccc(OCCN3CCOCC3)c(F)c2F)N1C` [Example 294], 4.87; with `COc1cccc(-c2cc(C(F)(F)F)ccc2NC(=O)C2=C(O)[C@@]3(C)CCCN3N(Cc3ccc(OC4CCOCC4)c(F)c3F)C2=O)c1OC` [Example 158], 4.89.
Turning to `C[C@]12CCCN1N(Cc1ccc(OCCCCOC[C@H](O)CO)c(F)c1F)C(=O)C(C(=O)Nc1ccc(Cl)cc1-c1ccc(C(F)(F)F)nc1)=C2O` [Example 121, (4aR)—N-[4-Chloro-2-[6-(trifluoromethyl)pyridin-3-yl]phenyl]-1-[[4-[4-[(2R)-2,3-dihydroxypropoxy]butoxy]-2,3-difluorophenyl]methyl]-4-hydroxy-4a-methyl-2-oxo-6,7-dihydro-5H-pyrrolo[1,2-b]pyridazine-3-carboxamide], the pIC50 is 4.80.
The same measure, in the same setting: under `C[C@]12CCCN1N(Cc1c(F)cc(OCCCCCCOC[C@@H](O)CO)cc1F)C(=O)C(C(=O)Nc1ccc(C(F)(F)F)cc1-c1ccc(C(F)(F)F)nc1)=C2O` [Example 154] stands 5.60.
`CN1[C@@H](C(C)(C)C)C(O)=C(C(=O)Nc2ccc(C(F)(F)F)cc2C(F)(F)F)C(=O)N1Cc1ccc(OCCN2CCOCC2)c(F)c1F` [Example 277]: the pIC50 was 4.75.

The assay is the same for the next values; noted with them: read-out: IC50 against 33PO4 uptake into human NaPi-IIb-expressing cells.
In the case of `CN(C[C@H](O)[C@@H](O)[C@H](O)[C@H](O)CO)C(=O)CCOCCOCCOCCOc1ccc(CN2C(=O)C(C(=O)Nc3ccc(C(F)(F)F)cc3-c3cc(C(F)(F)F)ncn3)=C(O)C3(CCCC3)N2C)c(F)c1F` [Example 423], the pIC50 is 4.70.
The same measure, in the same setting: with `CN1N(Cc2ccc(OCCN3CCN(S(C)(=O)=O)CC3)c(F)c2F)C(=O)C(C(=O)Nc2ccc(C(F)(F)F)cc2-c2cc(C(F)(F)F)ncn2)=C(O)C12CCC2` [Example 363] the figure was 4.55; with `CN1N(Cc2ccc(OCCCCOC[C@H](O)CO)c(F)c2F)C(=O)C(C(=O)Nc2ccc(C(F)(F)F)cc2-c2ccc(C(F)(F)F)nc2)=C(O)C12CCCC2` [Example 387], 4.97; with `CCN(CCN(C)CCOC)c1ccc(CN2C(=O)C(C(=O)Nc3ccc(C(F)(F)F)cc3-c3cc(C(F)(F)F)ncn3)=C(O)C3(CCCC3)N2C)c(F)c1F` [Example 443], 5.05.
On the same count and under the same terms, with `CC(=O)NCCN(C)CCOc1ccc(CN2C(=O)C(C(=O)Nc3ccc(C(F)(F)F)cc3-c3cc(C(F)(F)F)ncn3)=C(O)C3(CCC3)N2C)c(F)c1F` [Example 353] the figure was 4.62; with `CN1N(Cc2ccc(NCCCN3CCOCC3)c(F)c2F)C(=O)C(C(=O)Nc2ccc(C(F)(F)F)cc2-c2cc(C(F)(F)F)ncn2)=C(O)C12CCCC2` [Example 446], 4.95; with `CN1N(Cc2ccc(OC3COC3)c(F)c2F)C(=O)C(C(=O)Nc2ccc(C(F)(F)F)cc2-c2cc(C(F)(F)F)ncn2)=C(O)C12CCC2` [Example 403, 6-(2,3-Difluoro-4-(oxetan-3-yloxy)benzyl)-9-hydroxy-5-methyl-7-oxo-N-(4-(trifluoromethyl)-2-(6-(trifluoromethyl)pyrimidin-4-yl)phenyl)-5,6-diazaspiro[3.5]non-8-ene-8-carboxamide], 5.20.
Same read-out and setting: under `CN(CCOc1ccc(CN2C(=O)C(C(=O)Nc3ccc(C(F)(F)F)cc3-c3cc(C(F)(F)F)ncn3)=C(O)C3(CCCC3)N2C)c(F)c1F)C1COC1` [Example 412, 7-(2,3-Difluoro-4-(2-(methyl(oxetan-3-yl)amino)ethoxy)benzyl)-10-hydroxy-6-methyl-8-oxo-N-(4-(trifluoromethyl)-2-(6-(trifluoromethyl)pyrimidin-4-yl)phenyl)-6,7-diazaspiro[4.5]dec-9-ene-9-carboxamide] stands 4.72.
